Data published in patent publication US10619133B2, “Engineered living tissue substitute” (NATIONAL UNIVERSITY OF IRELAND, GALWAY, priority 2011, dated 2020).

What was measured:
enzymatic activity = conditions: cited from earlier work
[1] = tested on: human umbilical arterial smooth muscle cells (HUASMC); experiment: ECM / collagen-1 deposition in human umbilical arterial smooth muscle cells; type: cell-based; conditions: 0, 25, 50, 100 μM ascorbic acid; p>0.05
Procedure: Human lung fibroblasts (WI-38; American Tissue Culture Collection), Human skin fibroblasts (WS-1; American Tissue Culture Collection) were routinely cultured in Dulbecco's modified Eagle medium with 10% fetal bovine serum (FBS), 1% penicillin-streptomycin at 37° C. in a humidified atmosphere of 5% CO2. Commercially available Smooth Muscle Growth Medium-2 (CLONETICS® SmGM®-2) and supplements (SmGM-2 SingleQuots) were used for human umbilical arterial smooth muscle cells (HUASMC; CLONETICS® UASMC-Human Umbilical Artery Smooth Muscle Cells; Lonza CC-2579). Cells were seeded at 50,000 cells/well in 24-well plates and were allowed to attach for 24 hours. […] To induce collagen synthesis, fibroblasts were supplemented with 100 μM L-ascorbic acid phosphate. The HUASMC was supplemented with various concentration of ascorbic acid (0 μM, 25 μM, 50 μM and 100 μM). In some of the experiment commercially available human serum (Lonza, Belgium) was also used as supplement in place of FBS. At the end of culture time points, culture media were collected into separate vials, whereas cell layers were washed twice with Hank's balanced salt solution (HBSS). […] Cell layer and Medium samples were analyzed by SDS-PAGE under nonreducing conditions with Mini-Protean 3 (Bio-Rad Laboratories). […] Collagen bands were quantified by defining each band with the rectangular tool with background subtraction.

| SMILES | effect on enzymatic activity (enzymatic activity) | effect of ascorbic acid on ECM deposition [1] |
| --- | --- | --- |
| OC[C@H]1O[C@@](CO)(O[C@H]2O[C@H](CO)[C@@H](O)[C@H](O)[C@H]2O)[C@@H](O)[C@@H]1O [Sucrose] | Ineffective | – |
| O=C1O[C@H]([C@@H](O)CO)C(O)=C1O [ascorbic acid] | – | did not affected ECM deposition |
